From patent publication US20260364184A1, “COMPOUND BASED ON OXOISOINDOLINYL-SUBSTITUTED TETRAHYDROPYRIMIDINE-DIONE AND USE THEREOF” (GLUETACS THERAPEUTICS (SHANGHAI) CO., LTD., priority 2023, published 2026)

Key:
[1] = biological target: T1, human Cereblon WT GST-tagged protein (CRBN) (Homo sapiens, UniProt Q96SW2); assay: CRBN binding by HTRF (Cereblon binding kit); details: for inhibition at 0.5 µM: read-out: Inhibition Rate at 0.5 μM (%); for inhibition at 2 µM: read-out: Inhibition Rate at 2 μM (%)
T1 construct: purchased CISBIO 64BDCRBNPEH
T1 sequence (Q96SW2 whole entry): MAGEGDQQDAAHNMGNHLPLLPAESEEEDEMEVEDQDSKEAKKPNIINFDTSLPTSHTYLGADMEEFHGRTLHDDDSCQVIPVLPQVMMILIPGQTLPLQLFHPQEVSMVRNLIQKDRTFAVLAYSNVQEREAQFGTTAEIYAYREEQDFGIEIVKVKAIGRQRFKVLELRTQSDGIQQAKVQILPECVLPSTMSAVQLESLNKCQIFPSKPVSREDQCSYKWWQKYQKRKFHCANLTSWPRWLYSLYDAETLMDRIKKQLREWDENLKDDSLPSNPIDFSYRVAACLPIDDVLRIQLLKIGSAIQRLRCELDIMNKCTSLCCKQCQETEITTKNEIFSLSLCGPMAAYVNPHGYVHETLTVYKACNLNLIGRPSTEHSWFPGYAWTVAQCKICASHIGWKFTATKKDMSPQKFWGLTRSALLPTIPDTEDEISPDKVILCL
Experimental: The CEREBLON BINDING kits (specification: 10,000 tests; product number: Catalog #64BDCRBNPEH; CISBIO company) was used to determine the CRBN binding ability of the compounds to be tested through a HTRF method (homogeneous time-resolved fluorescence). The specific methods are as follows: • 1. According to the instructions of the CEREBLON BINDING KITS, serial dilutions were performed for the test compounds of the present disclosure (including the compounds in Table 1, Table 2, and Examples 1-468) and for lenalidomide. Specifically, diluent #9 (1×) solution was used as the diluent, and multiple concentration gradients were set. The dilution operation can be performed according to one of the following two methods: • (1) The first dilution method: The test compounds of the present disclosure (including the compounds in Table 1, Table 2, and Examples 1-468) were subjected to 5-fold serial dilutions starting from a highest concentration of 40 μM, resulting in a total of 7 concentrations from high to low (40, 8, 1.6, 0.32, 0.064, 0.0128, 0.00256 μM). Subsequently, the diluted test compounds and corresponding detection reagents were added to each well of a 96-well plate, resulting in final test compound concentrations of 10, 2, 0.4, 0.08, 0.016, 0.0032, and 0.00064 μM, respectively. • (2) As an alternative, a second dilution method can be used: The test compounds of the present disclosure (including the compounds in Table 1, Table 2, and Examples 1-468) were subjected to 4-fold gradient dilutions starting from a highest concentration of 8 μM, resulting in 2 concentrations (8 μM, 2 μM). Into the 96-well plate, the diluted test compounds and corresponding detection reagents were added, resulting in final test compound concentrations of 2 μM and 0.5 μM, respectively. The experimental procedure is described below using the diluted 8 μM test compound and lenalidomide solutions as examples. • 2. 2.5 μL of the above 8 μM of the tested compounds and lenalidomide solution, as well as the same volume of diluent #9 (1×) solution (solvent control group, Std0) were added to each well of a 96-well plate, respectively. Then, 2.5 μL of human Cereblon WT GST-tagged protein solution was added to each well. Finally, 5 μL of the thoroughly mixed Thalidomide-Re reagent and GST Eu antibody working solution were added to each of the aforementioned wells. The final concentration of the tested compounds and lenalidomide in each well was 2 μM. • 3. The blank control wells were sequentially added with 2.5 μL of diluent #9 (1×) solution, 2.5 μL of PROTAC binding buffer, and 5 μL of thoroughly mixed Thalidomide-Re reagent and GST Eu antibody working solution. • 4. After sealing and incubating the solutions in the aforementioned wells at room temperature for 3 hours, the absorbance values at emission wavelengths of 620 nm and 665 nm were detected by the HTRF method using a Spark microplate reader (V3.1 SP1).
The corresponding CRBN binding inhibition rate was calculated using the following method:
Rcompound=OD 665 nmcompound/OD 620 nmcompound−OD 665 nmcontrol/OD 620 nmcontrol
RStd0=OD 665 nmStd0/OD 620 nmStd0−OD 665 nmcontrol/OD 620 nmcontrol inhibition rate (%)=(1−Rcompound/RStd0)*100
Note: OD 665 nmcompound is the absorbance value of each well of the compounds to be tested of the present disclosure at an emission wavelength of 665 nm. OD 620 nmcompound is the absorbance value of each well of the compounds to be tested of the present disclosure at an emission wavelength of 620 nm. OD 665 nmcontrol is the absorbance value of the blank control well at an emission wavelength of 665 nm. OD 620 nmcontrol is the absorbance value of the blank control well at an emission wavelength of 620 nm. OD 665 nmStd0 is the absorbance value of the solvent control well at an emission wavelength of 665 nm. OD 620 nmStd0 is the absorbance value of the solvent control well at an emission wavelength of 620 nm.

IRAK4 = biological target: T2, IRAK4 (Homo sapiens, UniProt Q9NWZ3); assay: Western blot degradation of IRAK4; format: cell-based; details: hPBMC Cell; 24 hours
T2 construct: expression of target proteins in cells; endogenous in cells
T2 sequence (Q9NWZ3 1-460): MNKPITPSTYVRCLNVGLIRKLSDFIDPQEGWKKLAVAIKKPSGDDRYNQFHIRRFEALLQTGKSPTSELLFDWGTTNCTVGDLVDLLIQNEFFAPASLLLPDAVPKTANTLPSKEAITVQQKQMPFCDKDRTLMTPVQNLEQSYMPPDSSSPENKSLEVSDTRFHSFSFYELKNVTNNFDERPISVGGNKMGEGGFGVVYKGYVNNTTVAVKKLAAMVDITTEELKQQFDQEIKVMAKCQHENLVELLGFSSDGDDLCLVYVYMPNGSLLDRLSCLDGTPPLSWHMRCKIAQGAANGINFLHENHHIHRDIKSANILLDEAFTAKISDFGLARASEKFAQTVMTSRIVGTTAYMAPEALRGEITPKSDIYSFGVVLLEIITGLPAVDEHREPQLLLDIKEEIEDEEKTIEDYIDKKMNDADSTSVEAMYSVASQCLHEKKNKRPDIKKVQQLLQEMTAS
In short: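 Immunoblot of drug-treated versus DMSO-treated cell lysates, with densitometric quantification. Values: DC50 (50% band loss, fitted) and loading-control-normalised % remaining or degradation.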

[2] = test system: Human Multiple myeloma cell line (MM.1S); assay: Inhibition of MM.1S cell proliferation (CellTiter luminescent viability); format: cell-based; details: Homo sapiens, MM1.S, Table IG1, FAK inhibitor-based, 96 hours
In short: (§1)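 Cells are seeded in 96-well plates, cultured at 37 °C, 5% CO2, and treated next day with 5-fold serial compound dilutions (stock series from 2000 μM; 0.5 μL into 100 μL medium). Viability is read by CellTiter-Meiluncell luminescence after the set exposure, and IC50 is taken from growth-inhibition curves.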

[3] = test system: Human myeloid monocytic leukemia cell line (MV-4-11); assay: Inhibition of MV-4-11 cell proliferation (CellTiter luminescent viability); format: cell-based; details: Homo sapiens, MV4-11, Table IG2, FAK inhibitor-based, 96 hours
In short: as §1

Structure (SMILES): CN(C)C(=O)c1cc2cnc(Nc3ccc(N4CCC(CN5CC6CC(C5)N6c5ccc6c(c5)C(=O)N(N5CCC(=O)NC5=O)C6=O)CC4)cn3)nc2n1C1CCCC1 [GT-05201, 7-cyclopentyl-2-((5-(4-((6-(2-(2,4-dioxotetrahydropyrimidin-1(2H)-yl)-1,3-dioxoisoindolin-5-yl)-3,6-diazabicyclo[3.1.1]heptan-3-yl)methyl)piperidin-1-yl)pyridin-2-yl)amino)-N,N-dimethyl-7H-pyrrolo[2,3-d]pyrimidine-6-carboxamide]
- Inhibition Rate at 0.5 μM (%) ([1]; 0.5 μM): a3 (30% < a3 ≤ 40%)
- Inhibition Rate at 2 μM (%) ([1]; 2 μM): a5 (53% < a5 ≤ 60%)

Structure (SMILES): O=C1CCN(N2C(=O)c3ccc(N4CC5CCC4CN5C[C@H]4CC[C@H](n5cc(NC(=O)c6cnn7ccc(N8C[C@H]9C[C@@H]8CO9)nc67)c(C(F)F)n5)CC4)cc3C2=O)C(=O)N1 [GT-05833, 5-((1R,4R)-2-oxa-5-azabicyclo[2.2.1]heptan-5-yl)-N-(3-(difluoromethyl)-1-((1r,4R)-4-((5-(2-(2,4-dioxotetrahydropyrimidin-1(2H)-yl)-1,3-dioxoisoindolin-5-yl)-2,5-diazabicyclo[2.2.2]octan-2-yl)methyl)cyclohexyl)-1H-pyrazol-4-yl)pyrazolo[1,5-a]pyrimidine-3-carboxamide]
- Degradation of substrate protein IRAK4 (substrate protein remaining %) (IRAK4): A (0%≤substrate protein remaining %≤80%)
- inhibition at 0.5 µM ([1]; 0.5 μM): 40 to 53%
- inhibition at 2 µM ([1]; 2 μM): 60 to 80%

Structure (SMILES): CNC(=O)c1ccccc1Nc1cc(Nc2ccc(N3CCN(Cc4ccc5c(c4)CN(N4CCC(=O)NC4=O)C5=O)CC3)cc2OC)ncc1C(F)(F)F [GT-07660, 2-((2-((4-(4-((2-(2,4-dioxotetrahydropyrimidin-1(2H)-yl)-1-oxoisoindolin-5-yl)methyl)piperazin-1-yl)-2-methoxyphenyl)amino)-5-(trifluoromethyl)pyridin-4-yl)amino)-N-methylbenzamide]
- inhibition at 0.01 µM ([2]; 10 nM, read-out: Inhibition Rate at 10 nM (%)): 15 to 20%
- inhibition at 0.5 µM ([2]; 500 nM, read-out: Inhibition Rate at 500 nM (%)): 60 to 80%
- inhibition at 0.01 µM ([3]; MV-4-11, 10 nM, read-out: Inhibition Rate at 10 nM (%)): 50 to 60%
- inhibition at 0.5 µM ([3]; MV-4-11, 500 nM, read-out: Inhibition Rate at 500 nM (%)): 80 to 100%
- inhibition at 0.5 µM ([1]; 0.5 μM): 30 to 40%
- inhibition at 2 µM ([1]; 2 μM): 60 to 80%

Structure (SMILES): CN(Cc1ccc(-c2[nH]c3cc(F)cc4c3c2CCNC4=O)cc1)Cc1ccc2c(c1)CN(N1CCC(=O)NC1=O)C2=O [GT-08403, 1-(5-(((4-(8-fluoro-1-oxo-2,3,4,6-tetrahydro-1H-azepino[5,4,3-cd]indol-5-yl)benzyl)(methyl)amino)methyl)-1-oxoisoindolin-2-yl)dihydropyrimidine-2,4(1H,3H)-dione]
- inhibition at 0.5 µM ([1]; 0.5 μM): 20 to 30%
- inhibition at 2 µM ([1]; 2 μM): 53 to 60%

Structure (SMILES): Cc1cc(-c2ccc3c4cnccc4n(C)c3c2)cnc1N1CCN(Cc2ccc3c(c2)CN(N2CCC(=O)NC2=O)C3=O)CC1 [GT-08540, 1-(5-((4-(3-methyl-5-(5-methyl-5H-pyrido[4,3-b]indol-7-yl)pyridin-2-yl)piperazin-1-yl)methyl)-1-oxoisoindolin-2-yl)dihydropyrimidine-2,4 (1H,3H)-dione]
- inhibition at 0.5 µM ([1]; 0.5 μM): 10 to 20%
- inhibition at 2 µM ([1]; 2 μM): 53 to 60%

Structure (SMILES): Cn1c2ccncc2c2ccc(-c3cnc(N4CCN(Cc5ccc6c(c5)CN(N5CCC(=O)NC5=O)C6=O)CC4)c(Cl)c3)cc21 [GT-08541, 1-(5-((4-(3-chloro-5-(5-methyl-5H-pyrido[4,3-b]indol-7-yl)pyridin-2-yl)piperazin-1-yl)methyl)-1-oxoisoindolin-2-yl)dihydropyrimidine-2,4 (1H,3H)-dione]
- inhibition at 0.5 µM ([1]; 0.5 μM): 30 to 40%
- inhibition at 2 µM ([1]; 2 μM): 60 to 80%

Structure (SMILES): O=C1CCN(N2Cc3cc(CN4CCN(c5ccn6c(n5)nc5ccccc56)CC4)ccc3C2=O)C(=O)N1 [GT-08565, 1-(5-((4-(benzo[4,5]imidazo[1,2-a]pyrimidin-2-yl)piperazin-1-yl)methyl)-1-oxoisoindolin-2-yl)dihydropyrimidine-2,4 (1H,3H)-dione]
- inhibition at 0.5 µM ([1]; 0.5 μM): 10 to 20%
- inhibition at 2 µM ([1]; 2 μM): 60 to 80%

Structure (SMILES): Cn1ncc(Cl)c1-c1cc(C(=O)N[C@H](CNCC2CCN(c3cccc4c3C(=O)N(N3CCC(=O)NC3=O)C4=O)CC2)Cc2cccc(F)c2)sc1Cl [GT-08587, (S)-5-chloro-4-(4-chloro-1-methyl-1H-pyrazol-5-yl)-N-(1-(((1-(2-(2,4-dioxotetrahydropyrimidin-1(2H)-yl)-1,3-dioxoisoindolin-4-yl)piperidin-4-yl)methyl)amino)-3-(3-fluorophenyl)propan-2-yl)thiophene-2-carboxamide]
- inhibition at 0.5 µM ([1]; 0.5 μM): 10 to 20%
- inhibition at 2 µM ([1]; 2 μM): 53 to 60%

Structure (SMILES): O=C1CCN(N2C(=O)c3ccc(N4CC5CCC4CN5CC4CCN(c5ccn6c(n5)nc5ccccc56)CC4)cc3C2=O)C(=O)N1 (centres unmarked) [GT-08828, 5-(5-((1-(benzo[4,5]imidazo[1,2-a]pyrimidin-2-yl)piperidin-4-yl)methyl)-2,5-diazabicyclo[2.2.2]octan-2-yl)-2-(2,4-dioxotetrahydropyrimidin-1(2H)-yl)isoindoline-1,3-dione]
- inhibition at 0.5 µM ([1]; 0.5 μM): 20 to 30%
- inhibition at 2 µM ([1]; 2 μM): 53 to 60%
